The text below walks through data of BindingDB's records for doi:10.1016/j.bmcl.2012.07.104 (University of Lisbon, 2012).

The structures appear in SMILES notation. pIC50: −log10 of the molar value.

This test addresses T1, Cathepsin B-like cysteine protease (Trypanosoma brucei, UniProt Q6R7Z5).
T1 sequence (Q6R7Z5 whole entry): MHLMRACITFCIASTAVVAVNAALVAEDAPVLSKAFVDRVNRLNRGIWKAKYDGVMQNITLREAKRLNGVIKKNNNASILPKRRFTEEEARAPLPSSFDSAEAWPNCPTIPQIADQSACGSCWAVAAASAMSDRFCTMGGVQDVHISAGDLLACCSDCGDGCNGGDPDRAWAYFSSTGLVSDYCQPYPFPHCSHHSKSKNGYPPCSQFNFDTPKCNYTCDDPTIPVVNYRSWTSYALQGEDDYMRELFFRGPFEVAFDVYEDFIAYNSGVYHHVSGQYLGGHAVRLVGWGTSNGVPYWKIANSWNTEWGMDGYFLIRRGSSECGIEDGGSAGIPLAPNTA
The test is described as follows: Inhibition of Trypanosoma brucei CatB.
Take `Cn1c2c3ccc(Cl)cc3nc-2c(NC2CCNCC2)c2ccc(Cl)cc21`: the pIC50 is 4.37.

With `Cn1c2c3ccccc3nc-2c(NC2CCNCC2)c2ccc(Cl)cc21`, the negative logarithm of the IC50 (pIC50) is 4.23.

Turning to `Cn1c2c3ccccc3nc-2c(Nc2cccnc2)c2ccccc21`, the pIC50 is 4.23.

`CCN(CC)Cc1ccc(Nc2c3nc4ccccc4c-3n(C)c3ccccc23)cc1O` gave a pIC50 of 4.23.

The compound `Cn1c2c3ccccc3nc-2c(NC2CCN(Cc3ccccc3O)CC2)c2ccccc21` gave a pIC50 of 4.59.

`CC(C)CN1CCC(Nc2c3nc4ccccc4c-3n(C)c3ccccc23)CC1` had a pIC50 of 4.59.

Turning to `CCN(CC)CCCC(C)Nc1c2nc3ccccc3c-2n(C)c2ccccc12` (stereo not given), the pIC50 was < 4.00.

`CC(C)NCCCNc1c2nc3ccccc3c-2n(C)c2ccccc12` showed a pIC50 of 4.21.

As to `CN(C)CC(C)(C)CNc1c2nc3ccccc3c-2n(C)c2ccccc12`, the pIC50 is 4.21.

With `CC(CN(C)C)Nc1c2nc3ccccc3c-2n(C)c2ccccc12` (stereo not given), the pIC50 is < 4.00.
